≈ marks a conversion by molar mass, not a printed value. Calls of active or inactive are those of the source. The calls are words filed in the database; no cut-off is given here.
Assays:
[1] = Solubility of the compound; type: physicochemical
Homo sapiens = organism: Homo sapiens; assay: Kinetic stabilization of AL patient derived recombinant full length IGLV6-57 C214S mutant assessed as induction of dimer formation at 100 uM by sedimentation velocity analytical ultracentrifugation
[2] = molecular target: Immunoglobulin lambda variable 6-57 (Homo sapiens) (UniProt P01721); assay: Binding affinity to AL patient derived full length IGLV6-57 assessed as protection against proteinase K-mediated digestion by measuring fraction remaining at 100 uM measured after 2 hrs by analytical size-exclusion chromatography
Sequence of Immunoglobulin lambda variable 6-57 (Homo sapiens) (P01721 whole entry): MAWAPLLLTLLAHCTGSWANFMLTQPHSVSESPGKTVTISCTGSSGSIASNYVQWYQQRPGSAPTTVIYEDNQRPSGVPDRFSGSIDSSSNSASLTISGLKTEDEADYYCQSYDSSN

Row | solubility [1] [µM] | Activity (Homo sapiens) | Activity [2] | Structure (SMILES)
1 | 100 (≈ 38.3 µg/mL) | Active |  | CC1CCCCC12NC(=O)N(CC(=O)Nc1ccc(C(F)(F)F)cc1)C2=O (stereo not given)
2 |  | Active |  | CCN(CC)c1ccc2c(C)cc(=O)oc2c1
3 |  |  | Active | CC(C)C[C@H]1NC(=O)N(CC(=O)Nc2ccc(C(F)(F)F)cc2)C1=O
4 |  |  | Active | CC(C)C[C@@H]1NC(=O)N(CC(=O)Nc2ccc(C(F)(F)F)cc2)C1=O

— ChEMBL document CHEMBL4725275, “Structural basis for the stabilization of amyloidogenic immunoglobulin light chains by hydantoins” (Bioorg Med Chem Lett, 2020)
